According to patent US20250352521A1, “FIXED DOSAGE ANTIBIOTIC COMPOSITIONS” (Entasis Therapeutics Limited, priority 2021, published 2025):

How the values were obtained:
[1] = Bulk and tapped density analyses according to USP, with calculated compressibility index and Hausner ratio; type: physicochemical
Protocol: Bulk and tapped density analyses of DUR sodium salt were performed according to USP and the compressibility index (CI) and Hausner ratio was calculated. Typically, a material is considered to have poor flowability if the Hausner ratio is greater than 1.25 and/or if the CI is greater than 25. See e.g., Leroy A. Sherrington, Amal Sherrington, in Analytical Profiles of Drug Substances and Excipients, 1998. […] These experimental values are consistent with the observed powder adhesion.
It has now been found, however, that co-lyophilizing durlobactam sodium salt and sulbactam sodium salt improved flow properties compared to lyophilized durlobactam sodium alone. Initial experiments involved dissolving a 1:1 w/w mixture of durlobactam sodium salt and sulbactam sodium salt in water-for-injection and optimizing the bulk lyophilization conditions (per scale).

[2] = Dry powder filling / machinability trials: powder adhesion to filling equipment; type: physicochemical; conditions: machine filling of glass vials
Text: Initial attempts to formulate a fixed dosage comprised dry powder filling both DUR sodium salt and SUL sodium salt in glass vials. […] The drawback leads to unreliable and inconsistent product dosing. […] See e.g., the Exemplification section below.
Attempts to develop a commercially feasible fixed-dose combination of durlobactam and sulbactam by dry powder filling both DUR sodium salt and SUL sodium salt (as a 1:1 w/w mixture of each salt form) in glass vials were not successful because of the highly hygroscopic, poor flow properties of DUR sodium salt. […] See e.g., FIG. 1, showing the DUR sodium salt powder residue from the centralized suction and on the feeding chute observed during machinability trials. See also FIG. 2 which depicts the appearance of the DUR sodium salt powder filled product.

Enterobacteriaceae = conditions: in vitro; cited from earlier work
[3] = system: A. baumannii complex (ABC) isolates; conditions: cited from earlier work
[4] = system: class A, C, and D β-lactamases; conditions: cited from earlier work
[5] = calculated from bulk and tapped density

| SMILES | Bulk density [1] [g/mL] | Flowability as indicated by Hausner ratio and CI [1] | Tapped density [1] [g/mL] | CI (compressibility index) [1, 5] [%] | Hausner ratio [1, 5] | Hausner ratio ([1]; calculated from bulk and tapped density, listed as DUR sodium salt) | Powder adhesion to the parts of the filling equipment [2] | Intrinsic antibacterial activity (Enterobacteriaceae) | Restoration of in vitro activity of sulbactam ([3]; in combination with sulbactam) | Intrinsic activity ([3]; in vitro, durlobactam alone) | Inhibition of β-lactamases [4] |
| --- | --- | --- | --- | --- | --- | --- | --- | --- | --- | --- | --- |
| CC1=C[C@@H]2CN(C(=O)N2OS(=O)(=O)[O-])[C@@H]1C(N)=O.[Na+] [DUR-Na salt, Durlobactam] | 0.38 | extremely poor flowing material | 0.61 | 38 | 1.6 | > 1.6 | significant powder adhesion | – | – | – | – |
| CC1=C[C@@H]2CN(C(=O)N2OS(=O)(=O)O)[C@@H]1C(N)=O [Durlobactam] | – | – | – | – | – | – | – | intrinsic antibacterial activity against some Enterobacteriaceae | restores the in vitro activity of sulbactam | no significant intrinsic activity | potent inhibition |
